Measurements taken from patent US20050075375A1 (priority 2003, published 2005).
pEC50: −log10 of the molar value. Like-named read-outs stand apart in the source and are kept apart here.

Test system: monocistronic NK5.1 HCV replicon in Huh7 cells
Assay: HCV replicon assay, monocistronic replicon cell line
Assay type: cell-based, hepatitis C virus
Details: Hepatitis C virus, read-out: Mono EC50 Median
How it was run: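 EC50 derives from the HCV RNA/GAPDH RNA ratio by one-step TaqMan RT-PCR, relative to DMSO-only wells. Compounds (six half-log concentrations, 0.6% DMSO) were incubated 3 days at 37 °C with NK5.1 monocistronic replicon Huh7 cells plated a day earlier.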

[1] = Huh-7, 72 h, Table 1, monocistronic replicon in Huh7 cells, 3 days incubation, HCV RNA/GAPDH RNA by TaqMan RT-PCR
[2] = Huh-7, monocistronic NK5.1 HCV replicon in Huh7 cells, median value
[3] = Huh-7, 72 h, table T3 (compounds 471-640), monocistronic replicon in Huh7 cells, 3 days incubation, HCV RNA/GAPDH RNA by TaqMan RT-PCR

SMILES	pEC50 [1]	pEC50 [2]	pEC50 [3]
Cc1ccc(O)c(-c2nc(-c3ncccc3C)no2)c1 [Compound 192, 4-Methyl-2-[3-(3-methyl-pyridin-2-yl)-[1,2,4]oxadiazol-5-yl]-phenol]	< 4.49		
COc1ccc(F)c(-c2nc(-c3ncccc3C)n[nH]2)c1 [Compound 459, 2-[5-(2-Fluoro-5-methoxy-phenyl)-1H-[1,2,4]triazol-3-yl]-3-methyl-pyridine]		< 4.49	
CC(=O)Nc1ccc(-c2noc(-c3cc(Br)ccc3O)n2)nc1 [Compound 263, N-{6-[5-(5-Bromo-2-hydroxy-phenyl)-[1,2,4]oxadiazol-3-yl]-pyridin-3-yl}-acetamide]		< 4.72	
COc1ccc(-c2ccn(-c3ccccn3)n2)c(O)c1OC [Compound 118, 2,3-Dimethoxy-6-(1-pyridin-2-yl-1H-pyrazol-3-yl)-phenol]	4.62		
Cc1cc(-c2ccc3ccccc3c2O)n(-c2ccccn2)n1 [Compound 9, 2-(5-Methyl-2-pyridin-2-yl-2H-pyrazol-3-yl)-naphthalen-1-ol]	< 4.72		
Cc1cccnc1-c1noc(-c2ccc(NC(=O)c3ccccc3)cc2O)n1 [Compound 289]		5.21	
COc1cccc(-c2nc(-c3cnccc3C(F)(F)F)n[nH]2)c1O [Compound 423, 6-Methoxy-2-[5-(4-trifluoromethyl-pyridin-3-yl)-2H-[1,2,4]triazol-3-yl]-phenol]		< 4.72	
Cc1cccc(-c2n[nH]c(-c3ccccc3O)n2)n1 [Compound 402, 2-(5-(6-methyl-pyridin-2-yl)-2H-[1,2,4]triazol-3-yl)-phenol]		< 4.72	
CCOC(=O)c1cc(-c2ccc(OC)cc2)n(-c2ncccc2[N+](=O)[O-])n1 [Compound 61, 5-(4-Methoxy-phenyl)-1-(3-nitro-pyridin-2-yl)-1H-pyrazole-3-carboxylic acid ethyl ester]	4.72		
COc1ccc(O)c(-c2ccn(-c3ccccn3)n2)c1 [Compound 84, 4-Methoxy-2-(1-pyridin-2-yl-1H-pyrazol-3-yl)-phenol]	5.48		
COc1cccc(-c2nc(-c3ncccc3C)no2)c1 [Compound 176, 2-[5-(3-Methoxy-phenyl)-[1,2,4]oxadiazol-3-yl]-3-methyl-pyridine]	4.89		
Cc1cccnc1-c1noc(-c2cc(Br)cc(Br)c2O)n1 [Compound 280, 2,4-Dibromo-6-[3-(3-methyl-pyridin-2-yl)-[1,2,4]oxadiazol-5-yl]-phenol]		5.13	
CCCNC(=O)c1cc(-c2ccc(OC)cc2)nn1-c1ccc(Cl)cc1 [Compound 55, 2-(4-Chloro-phenyl)-5-(4-methoxy-phenyl)-2H-pyrazole-3-carboxylic acid propylamide]	4.74		
CC(C)c1ccc(-c2nc(-c3ncccc3Br)n[nH]2)cc1 [Compound 502, 3-Bromo-2-[5-(4-isopropyl-phenyl)-1H-[1,2,4]triazol-3-yl]-pyridine]			4.92
COc1ccccc1-c1ccn(-c2ccccn2)n1 [Compound 39, 2-[3-(2-Methoxy-phenyl)-pyrazol-1-yl]-pyridine]	< 4.49		
Cc1cccnc1-n1ccc(-c2cc(Br)ccc2O)n1 [Compound 99, 4-Bromo-2-[1-(3-methyl-pyridin-2-yl)-1H-pyrazol-3-yl]-phenol]	5.44		
COc1ccc(OCc2ccccc2)c(-c2ccnn2Cc2ccc3ccccc3n2)c1 [Compound 110, 2-[5-(2-Benzyloxy-5-methoxy-phenyl)-pyrazol-1-ylmethyl]-quinoline]	5.10		
Cc1cccnc1-c1noc(-c2cc(Cl)cc(Cl)c2O)n1 [Compound 278, 2,4-Dichloro-6-[3-(3-methyl-pyridin-2-yl)-[1,2,4]oxadiazol-5-yl]-phenol]		5.42	

SMILES	pEC50 [1]	pEC50 [2]	pEC50 [3]
COc1cccc(-c2nc(-c3ncccc3[N+](=O)[O-])no2)c1O [Compound 166, 2-Methoxy-6-[3-(3-nitro-pyridin-2-yl)-[1,2,4]oxadiazol-5-yl]-phenol]	< 4.72		
Oc1ccc2ccccc2c1-c1nc(-c2cc(C(F)(F)F)ccc2F)no1 [Compound 136, 1-[3-(2-Fluoro-5-trifluoromethyl-phenyl)-[1,2,4]oxadiazol-5-yl]-naphthalen-2-ol]	< 4.49		
CCCNC(=O)c1cc(-c2ccc3ccccc3c2)n(-c2ncccc2C(F)(F)F)n1 [Compound 77, 5-Naphthalen-2-yl-1-(3-trifluoromethyl-pyridin-2-yl)-1H-pyrazole-3-carboxylic acid propylamide]	< 4.49		
CCOC(=O)c1cc(-c2ccc3ccccc3c2)n(-c2ccccn2)n1 [Compound 66, 5-Naphthalen-2-yl-1-pyridin-2-yl-1H-pyrazole-3-carboxylic acid ethyl ester]	4.52		
O=C(O)c1cc(-c2ccc3ccccc3c2)n(-c2ncccc2[N+](=O)[O-])n1 [Compound 75]	< 4.49		
COc1ccc(O)c(-c2ncn(-c3ncccc3C(F)(F)F)n2)c1 [Compound 638, 4-Methoxy-2-[1-(3-trifluoromethyl-pyridin-2-yl)-1H-[1,2,4]triazol-3-yl]-phenol]			4.96
COc1ccc(-c2cc(C(=O)O)n(-c3ccccn3)n2)cc1 [Compound 63]	< 4.49		
FC(F)(F)c1ccc(-c2n[nH]c(-c3c(Cl)cccc3Cl)n2)nc1 [Compound 527, 2-[5-(2,6-Dichloro-phenyl)-1H-[1,2,4]triazol-3-yl]-5-trifluoromethyl-pyridine]			< 4.72
Cc1cccnc1-c1n[nH]c(-c2cc([N+](=O)[O-])ccc2O)n1 [Compound 442, 4-Nitro-2-(5-(3-methyl-pyridin-2-yl)-2H-[1,2,4]triazol-3-yl)-phenol]		5.10	
Cc1ccc(O)c(-c2nc(-c3ncccn3)n[nH]2)c1 [Compound 567, 4-Methyl-2-(5-pyrimidin-2-yl-2H-[1,2,4]triazol-3-yl)-phenol]			< 4.49
Oc1ccc(F)cc1-c1nc(-c2nccc3ccccc23)n[nH]1 [Compound 369, 4-Fluoro-2-(5-isoquinolin-1-yl-2H-[1,2,4]triazol-3-yl)-phenol]		5.46	
Oc1ccc(Cl)cc1-c1nc(-c2nccc3ccccc23)n[nH]1 [Compound 371, 4-Chloro-2-(5-isoquinolin-1-yl-2H-[1,2,4]triazol-3-yl)-phenol]		< 4.72	
Fc1ccccc1-c1nnc(-c2ccco2)o1 [Compound 336, 2-(2-Fluoro-phenyl)-5-furan-2-yl-[1,3,4]oxadiazole]		< 4.49	
COc1ccc2oc(=O)c3c(C)n(-c4ccccn4)nc3c2c1 [Compound 95]	5.24		
Nc1ccc(-c2n[nH]c(-c3cc(Br)ccc3O)n2)nc1 [Compound 592, 2-[5-(5-Amino-pyridin-2-yl)-2H-[1,2,4]triazol-3-yl]-4-bromo-phenol]			< 4.49
COc1cccnc1-c1noc(-c2cccc(OC)c2O)n1 [Compound 246, 2-Methoxy-6-[3-(3-methoxy-pyridin-2-yl)-[1,2,4]oxadiazol-5-yl]-phenol]	4.72	4.72	
Oc1ccc(Br)cc1-c1nc(-c2ncccc2-c2ccccc2)no1 [Compound 228, 4-Bromo-2-[3-(3-phenyl-pyridin-2-yl)-[1,2,4]oxadiazol-5-yl]-phenol]	5.66	5.66	
CCOc1ccc(-c2nc(-c3ncccc3C)no2)c(O)c1 [Compound 243, 5-Ethoxy-2-[3-(3-methyl-pyridin-2-yl)-[1,2,4]oxadiazol-5-yl]-phenol]	5.66	5.66	
